This passage reports T/C results from PubChem BioAssay AID328 (DTP/NCI, 2004).

Values joined by “and” are separate entries in the source; they are usually repeats but may differ in a detail not shown here. Equal values may be shown once. Inconclusive results and toxic doses are left out.

The test relates to BDF1 mice, P388 leukemia ip, median survival T/C. Description: NCI In Vivo Anticancer Drug Screen. Data for tumor model P388 Leukemia (intraperitoneal) in B6D2F1 (BDF1) mice. Conditions: endpoint: median survival time, higher = longer survival. Summed up: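 Steps: implant the tumour, treat one group with compound and another with vehicle, record survival, then divide treated by control.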

Setting [1] is: dose: 50.0 mg/kg/injection, schedule: Q01DX009 (ip), vehicle: saline with Tween-80.
Setting [2] is: dose: 100.0 mg/kg/injection, schedule: Q01DX009 (ip), vehicle: saline with Tween-80.
[3] abbreviates: dose: 200.0 mg/kg/injection, schedule: Q01DX009 (ip), vehicle: saline with Tween-80.
Setting [4] is: dose: 12.5 mg/kg/injection, schedule: Q01DX009 (ip), vehicle: saline.
[5] abbreviates: dose: 25.0 mg/kg/injection, schedule: Q01DX009 (ip), vehicle: saline.
The mark [6] stands for this setting: dose: 3.13 mg/kg/injection, schedule: Q01DX009 (ip), vehicle: saline with Tween-80.
Setting [7] is: dose: 6.25 mg/kg/injection, schedule: Q01DX009 (ip), vehicle: saline with Tween-80.

On to `CNC(=S)N/N=C(\C)CSC/C(C)=N/NC(=S)NC`, for which the T/C (dose: 7.5 mg/kg/injection, schedule: Q01DX009 (ip), vehicle: saline with Tween-80) is 102 % of control; the T/C (dose: 15.0 mg/kg/injection, schedule: Q01DX009 (ip), vehicle: saline with Tween-80) is 99 % of control and 122 % of control; the T/C (dose: 30.0 mg/kg/injection, schedule: Q01DX009 (ip), vehicle: saline with Tween-80) was 102 % of control and 124 % of control; the T/C (dose: 60.0 mg/kg/injection, schedule: Q01DX009 (ip), vehicle: saline with Tween-80) is 92 % of control.
In the case of `C=C1C(=O)O[C@H]2[C@H]1[C@H](OC(=O)/C(C)=C\C)C[C@]1(CO1)[C@@H]1[C@H](OC(C)=O)C=C(C)[C@]21O`, the T/C is 100 % of control (dose: 10.0 mg/kg/injection, schedule: Q01DX010 (ip), vehicle: steriod suspending solution); 109 % of control (dose: 20.0 mg/kg/injection, schedule: Q01DX010 (ip), vehicle: steriod suspending solution); 118 % of control (dose: 40.0 mg/kg/injection, schedule: Q01DX010 (ip), vehicle: steriod suspending solution).
`O=C(NC(C(=O)O)c1ccccc1)OCc1ccccc1` (stereo not given): the T/C reads like this: (dose: 100.0 mg/kg/injection, schedule: Q04DX003 (ip), vehicle: saline with Tween-80) 104 % of control; (dose: 200.0 mg/kg/injection, schedule: Q04DX003 (ip), vehicle: saline with Tween-80) 109 % of control; (dose: 400.0 mg/kg/injection, schedule: Q04DX003 (ip), vehicle: saline with Tween-80) 100 % of control.
Regarding `CCCCCCCCCCCCCCCCCCCC/C=C/C1CC(=O)OC1=O` (stereo not given), the T/C (dose: 75.0 mg/kg/injection, schedule: Q01DX009 (ip), vehicle: Klucel (hydroxypropylcellulose) (HPC)) is 95 % of control; the T/C (dose: 100.0 mg/kg/injection, schedule: Q04DX003 (ip), vehicle: Klucel (hydroxypropylcellulose) (HPC)) is 100 % of control; the T/C (dose: 150.0 mg/kg/injection, schedule: Q01DX009 (ip), vehicle: Klucel (hydroxypropylcellulose) (HPC)) was 95 % of control; the T/C (dose: 200.0 mg/kg/injection, schedule: Q04DX003 (ip), vehicle: Klucel (hydroxypropylcellulose) (HPC)) was 87 % of control; the T/C (dose: 300.0 mg/kg/injection, schedule: Q01DX009 (ip), vehicle: Klucel (hydroxypropylcellulose) (HPC)) was 86 % of control; the T/C (dose: 400.0 mg/kg/injection, schedule: Q04DX003 (ip), vehicle: Klucel (hydroxypropylcellulose) (HPC)) is 87 % of control.
Regarding `CC(C)CCC[C@@H](C)[C@H]1CC[C@H]2[C@@H]3CC=C4C[C@@H](Cl)CC[C@]4(C)[C@H]3CC[C@]12C`, the T/C reads like this: (dose: 50.0 mg/kg/injection, schedule: Q04DX003 (sc), vehicle: Klucel (hydroxypropylcellulose) (HPC)) 95 % of control; (dose: 100.0 mg/kg/injection, schedule: Q04DX003 (sc), vehicle: Klucel (hydroxypropylcellulose) (HPC)) 104 % of control; (dose: 200.0 mg/kg/injection, schedule: Q04DX003 (sc), vehicle: Klucel (hydroxypropylcellulose) (HPC)) 95 % of control.
`O=C(CI)Nc1ccc(Br)cc1`: the T/C by setting is: (dose: 8.75 mg/kg/injection, schedule: Q01DX009 (ip), vehicle: Klucel (hydroxypropylcellulose) (HPC)) 104 % of control; (dose: 17.5 mg/kg/injection, schedule: Q01DX009 (ip), vehicle: Klucel (hydroxypropylcellulose) (HPC)) 104 % of control; (dose: 26.25 mg/kg/injection, schedule: Q04DX003 (ip), vehicle: Klucel (hydroxypropylcellulose) (HPC)) 90 % of control; (dose: 35.0 mg/kg/injection, schedule: Q01DX009 (ip), vehicle: Klucel (hydroxypropylcellulose) (HPC)) 104 % of control.
For the molecule `CC(C)=CCc1c(O)ccc(C(=O)/C=C/c2ccccc2)c1O`, the T/C is 102 % of control (dose: 3.12 mg/kg/injection, schedule: Q01DX009 (ip), vehicle: Klucel (hydroxypropylcellulose) (HPC)); 106 % of control (dose: 6.25 mg/kg/injection, schedule: Q01DX009 (ip), vehicle: Klucel (hydroxypropylcellulose) (HPC)); 116 % of control (dose: 12.5 mg/kg/injection, schedule: Q01DX009 (ip), vehicle: Klucel (hydroxypropylcellulose) (HPC)); 100 % of control (dose: 25.0 mg/kg/injection, schedule: Q01DX009 (ip), vehicle: Klucel (hydroxypropylcellulose) (HPC)); 90 % of control (dose: 50.0 mg/kg/injection, schedule: Q01DX009 (ip), vehicle: Klucel (hydroxypropylcellulose) (HPC)); 90 % of control (dose: 100.0 mg/kg/injection, schedule: Q01DX009 (ip), vehicle: Klucel (hydroxypropylcellulose) (HPC)).
For the molecule `O=c1oc2ccccc2c2c1C(c1ccc3c(c1)OCO3)C=C(c1ccc3c(c1)OCO3)O2` (stereo not given), the T/C by setting is: (dose: 12.5 mg/kg/injection, schedule: Q01DX009 (ip), vehicle: water) 97 % of control; (dose: 25.0 mg/kg/injection, schedule: Q01DX009 (ip), vehicle: water) 104 % of control; (dose: 25.0 mg/kg/injection, schedule: Q04DX003 (ip), vehicle: water) 113 % of control; (dose: 50.0 mg/kg/injection, schedule: Q01DX009 (ip), vehicle: water) 101 % of control and 104 % of control; (dose: 50.0 mg/kg/injection, schedule: Q04DX003 (ip), vehicle: water) 116 % of control; (dose: 100.0 mg/kg/injection, schedule: Q01DX009 (ip), vehicle: water) 95 % of control. For the same molecule, the T/C is, setting by setting: (dose: 100.0 mg/kg/injection, schedule: Q04DX003 (ip), vehicle: water) 103 % of control; (dose: 200.0 mg/kg/injection, schedule: Q01DX009 (ip), vehicle: water) 108 % of control and 123 % of control; (dose: 200.0 mg/kg/injection, schedule: Q04DX003 (ip), vehicle: water) 102 % of control and 111 % of control; (dose: 300.0 mg/kg/injection, schedule: Q01DX009 (ip), vehicle: water) 101 % of control; (dose: 300.0 mg/kg/injection, schedule: Q04DX003 (ip), vehicle: water) 102 % of control; (dose: 400.0 mg/kg/injection, schedule: Q01DX009 (ip), vehicle: water) 101 % of control. Also, the T/C was 119 % of control and 120 % of control (dose: 400.0 mg/kg/injection, schedule: Q04DX003 (ip), vehicle: water); 118 % of control (dose: 500.0 mg/kg/injection, schedule: Q01DX009 (ip), vehicle: water).
Consider `COc1ccc2c(=O)c3c(=O)c4c(=O)oc5ccccc5c4oc3oc2c1`, for which the T/C by setting is: under setting [1], 88 % of control; under setting [2], 88 % of control; under setting [3], 88 % of control.
For the molecule `CC1COC(Nc2cccc3c2CCCC3)=N1` (stereo not given), the T/C was 100 % of control (dose: 12.5 mg/kg/injection, schedule: Q04DX003 (ip), vehicle: saline with Tween-80); 109 % of control (dose: 25.0 mg/kg/injection, schedule: Q04DX003 (ip), vehicle: saline with Tween-80); 109 % of control (dose: 50.0 mg/kg/injection, schedule: Q04DX003 (ip), vehicle: saline with Tween-80).
Regarding `Cc1cc(S(=O)(=O)c2ccc(Cl)cc2)nc(S(=O)(=O)c2ccc(Cl)cc2)c1C#N`, the T/C is, setting by setting: (dose: 50.0 mg/kg/injection, schedule: Q01DX005 (ip), vehicle: saline with Tween-80) 110 % of control; (dose: 100.0 mg/kg/injection, schedule: Q01DX005 (ip), vehicle: saline with Tween-80) 110 % of control.
On to `CCCCCCCCCCCCNC(=O)c1ccc[n+](C)c1`, for which the T/C (dose: 6.25 mg/kg/injection, schedule: Q01DX009 (ip), vehicle: saline) is 118 % of control; the T/C under setting [4] was 109 % of control; the T/C under setting [5] was 113 % of control.
For the molecule `CC1(C)N=C(N)N=C(N)N1c1ccccc1`, the T/C was 118 % of control under setting [4]; 113 % of control under setting [5]; 118 % of control (dose: 50.0 mg/kg/injection, schedule: Q01DX009 (ip), vehicle: saline).
As to `CC1(C)C2CCC1(C)C1(C2)OC(CCl)CS1` (stereo not given), the T/C by setting is: under setting [1], 90 % of control; under setting [2], 94 % of control; under setting [3], 108 % of control.
As to `NC(=S)N/N=C/c1ccc(N)cn1`, the T/C under setting [6] is 160 % of control; the T/C under setting [7] is 172 % of control and 211 % of control.
Consider `Nc1nc(=O)n(C2CC(O)C(CO)O2)cc1Br` (stereo not given), for which the T/C reads like this: under setting [2], 109 % of control; under setting [3], 90 % of control; (dose: 400.0 mg/kg/injection, schedule: Q01DX009 (ip), vehicle: saline with Tween-80) 100 % of control.
With `CCCC[S+](CCCC)CC(=O)c1ccc(-c2ccccc2)cc1`, the T/C (dose: 1.56 mg/kg/injection, schedule: Q01DX009 (ip), vehicle: saline with Tween-80) was 105 % of control; the T/C under setting [6] is 100 % of control; the T/C under setting [7] is 106 % of control; the T/C (dose: 12.5 mg/kg/injection, schedule: Q01DX009 (ip), vehicle: saline with Tween-80) was 107 % of control; the T/C (dose: 25.0 mg/kg/injection, schedule: Q01DX009 (ip), vehicle: saline with Tween-80) was 113 % of control.
